Legend:
Format in all cases: functional
[1] = tested on: Streptococcus pneumoniae; experiment: Antibacterial activity against Streptococcus pneumoniae D39-3 with parC S79Y, gyrA S81F mutation by […]
[2] = tested on: Streptococcus pneumoniae; experiment: Antibacterial activity against Streptococcus pneumoniae 455 with parC S79Y, gyrA S81F mutation by […]
[3] = tested on: Streptococcus pneumoniae; experiment: Antibacterial activity against Streptococcus pneumoniae 3386 with parC S79F, gyrA S81F mutation by […]

Measured: MIC

C[C@H]1COc2c(N3CCN(C)CC3)c(F)cc3c(=O)c(C(=O)O)cn1c23.C[C@H]1COc2c(N3CCN(C)CC3)c(F)cc3c(=O)c(C(=O)O)cn1c23.O [LEVOFLOXACIN]
> 32 µg/mL: [1] | [2] | [3]

— ChEMBL document CHEMBL1154429, “Identifying mutator phenotypes among fluoroquinolone-resistant strains of Streptococcus pneumoniae using fluctuation analysis” (2007)
